Values of other authors as cited in patent US20230301939A1, “NOVEL FO[…]” (Neurocentrx Pharma Ltd., priority 2018, published 2023).
pIC50: −log10 of the molar value. Like-named read-outs stand apart in the source and are kept apart here.

Tests used:
[1] = tested on: mice
[2] = biological target: T1, a7 nicotinic acetylcholine receptor (Rattus norvegicus, UniProt Q05941); settings: for Negative allosteric modulator activity in words: KXa7R1 cell line, ketamine at the same concentrations (<1 μM)
T1 construct: expressed in transfected cells; host or cells: KXa7R1 cell line (HEK293)

[3] = in vivo

T1 sequence (Q05941 23-502): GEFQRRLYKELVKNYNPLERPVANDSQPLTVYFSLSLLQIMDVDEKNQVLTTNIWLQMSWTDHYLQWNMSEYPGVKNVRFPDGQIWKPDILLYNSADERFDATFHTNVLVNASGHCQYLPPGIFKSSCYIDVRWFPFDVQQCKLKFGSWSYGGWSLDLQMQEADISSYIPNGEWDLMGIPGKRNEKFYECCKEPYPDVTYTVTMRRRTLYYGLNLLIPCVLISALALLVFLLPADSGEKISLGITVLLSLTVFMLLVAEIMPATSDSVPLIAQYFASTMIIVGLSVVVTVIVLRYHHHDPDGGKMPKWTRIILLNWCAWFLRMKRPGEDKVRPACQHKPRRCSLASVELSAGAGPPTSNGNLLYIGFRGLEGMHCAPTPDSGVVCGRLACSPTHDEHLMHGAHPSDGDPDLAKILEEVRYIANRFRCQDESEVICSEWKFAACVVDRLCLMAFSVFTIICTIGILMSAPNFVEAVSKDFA

## N[C@@]1(c2ccccc2Cl)CCC[C@@H](O)C1=O [(2R,6R)-HNK]
[1]
  Antidepressant(-like) effect: ketamine-type antidepressant-like effects

## CNC1(c2ccccc2Cl)CCCCC1=O (centres unmarked) [Ketamine, ketamine]
[2]
  Negative allosteric modulator activity in words: inactive
intramuscularly
  Bioavailability: 93%
  Time to peak plasma concentrations: 5 to 15 min
intranasally
  Bioavailability: 8-50%
intravenously
  Time to peak plasma concentrations: within a minute
Oral route
  Bioavailability: 17-20%
orally
  Duration of action in a clinical setting: 4 to 6 h
  Time to peak plasma concentrations: 30 min
rectally
  Bioavailability: 30%

## CN[C@@]1(c2ccccc2Cl)CCCCC1=O [arketamine]
[1]
  Antidepressant(-like) effect: greater and lasted longer than that of esketamine

## NC1(c2ccccc2Cl)CCC=CC1=O (centres unmarked) [dehydronorketamine]
[2]; KXa7R1 cell line (HEK293 cells transfected with rat nicotinic acetylcholine receptor genes)
  pIC50: 7.26
[2]
  Negative allosteric modulator activity in words: nanomolar potencies

## NC1(c2ccccc2Cl)CCCC(O)C1=O (centres unmarked) [hydroxynorketamine]
[2]
  Negative allosteric modulator activity in words: nanomolar potencies

## NC1(c2ccccc2Cl)CCCCC1=O (centres unmarked) [norketamine]
[3]
  Potency as an anesthetic relative to ketamine: one-third to one-fifth as potent
[2]
  Negative allosteric modulator activity in words: nanomolar potencies
Following oral administration of ketamine
  Plasma levels relative to ketamine: three times higher
